Where a name gives a salt, the structure may show the parent alone.

Data set [1] can be described thus: Toxicity test in mouse (LD50, intraperitoneal application). To be noted: in vivo, ip. The source says:
The results of these toxicity tests on mouse and rat are shown in the following table as well as the effective dosage: […]

For data set [2] the following is noted: Antibiotiki 24(1979) p.659; cited from earlier work.
The conditions of data set [3]: Arzneimittelforschung 27(1977) p. 132; cited from earlier work.

Turning to `Cc1c(NC(=O)COc2ccc(Cl)cc2)c(=O)n(C)c(=O)n1C` [Example 3], in data set [1], the LD50 (as a rule, the dose expected to kill half of the subjects tested) was over 1700 mg/kg.
The same measure, in the same setting: then `Cc1[nH]c(=O)n(C)c(=O)c1NC(=O)COc1ccc(Cl)cc1` [Example 1, 5-(p-Chlorophenoxy-acetamido)-1,4-dimethyluracil], with over 1700 mg/kg.
As for `Cn1c(N)c(NC(=O)COc2ccc(Cl)cc2)c(=O)n(C)c1=O` [Example 4, 4-amino-5-(p-Chlorophenoxy-acetamido)-1,3-dimethyluracil], the 50% lethal dose (LD50) in data set [1] is over 1700 mg/kg.
Still for that read-out and setting: with `NC(=O)CN1CCCC1=O` [Piracetam] the figure was over 2000 mg/kg; with `CN(C)CCOC(=O)COc1ccc(Cl)cc1` [Meclofenoxate HCl], 856 mg/kg; with `Cc1[nH]c(=O)[nH]c(=O)c1NC(=O)COc1ccc(Cl)cc1` [Example 2, 5-(p-Chlorophenoxy-acetamido)-4-methyluracil], 800 mg/kg.
Consider `Cc1cc(=O)[nH]c(=O)[nH]1` [6-methyluracil], for which the antibiotic action result in data set [2] was “has an antibiotic action”. Further, in data set [3], the protection against radiation result is given as “can protect against radiation”.
